Residue numbers refer to the chain shown, from its start.

Type in all cases: cell-based
The target in experiment [1] is T1, W741L AR (Homo sapiens, UniProt P10275, W742L).
T1 construct: expressed in transfected cells; host or cells: COS-1
T1 sequence (P10275 1-920 W742L): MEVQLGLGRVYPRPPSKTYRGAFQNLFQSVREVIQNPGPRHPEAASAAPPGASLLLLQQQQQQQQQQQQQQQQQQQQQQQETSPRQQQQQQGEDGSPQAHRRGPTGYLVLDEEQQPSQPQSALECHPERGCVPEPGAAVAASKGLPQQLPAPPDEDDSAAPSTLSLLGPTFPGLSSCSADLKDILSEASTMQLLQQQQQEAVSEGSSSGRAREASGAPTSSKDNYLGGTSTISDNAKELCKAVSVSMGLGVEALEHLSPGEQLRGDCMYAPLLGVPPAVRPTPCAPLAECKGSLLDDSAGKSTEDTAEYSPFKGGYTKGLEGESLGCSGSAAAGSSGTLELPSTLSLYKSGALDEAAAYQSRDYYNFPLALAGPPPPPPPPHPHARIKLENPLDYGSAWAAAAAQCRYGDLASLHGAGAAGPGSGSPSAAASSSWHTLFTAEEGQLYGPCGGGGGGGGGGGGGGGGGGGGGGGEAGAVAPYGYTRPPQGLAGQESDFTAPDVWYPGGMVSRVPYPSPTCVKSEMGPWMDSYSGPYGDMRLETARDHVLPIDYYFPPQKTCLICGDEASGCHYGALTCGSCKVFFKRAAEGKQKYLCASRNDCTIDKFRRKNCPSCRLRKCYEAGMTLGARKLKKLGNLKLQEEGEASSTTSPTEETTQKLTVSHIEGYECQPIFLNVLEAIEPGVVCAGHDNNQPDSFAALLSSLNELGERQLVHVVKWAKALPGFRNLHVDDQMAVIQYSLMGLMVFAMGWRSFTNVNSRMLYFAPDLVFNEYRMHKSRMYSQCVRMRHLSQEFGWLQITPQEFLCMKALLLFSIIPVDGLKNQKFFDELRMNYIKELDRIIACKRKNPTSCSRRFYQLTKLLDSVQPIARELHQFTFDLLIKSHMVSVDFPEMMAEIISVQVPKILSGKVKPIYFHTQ
In words: Agonism in W741L mutant AR, AR transactivation assay in COS-1 cells, test compounds alone. Conditions: 10 microM, compound alone. How it is done:
COS-1 (American Type Culture Collection) were cultured in DMEM supplemented with 10% FBS, penicillin (6.25 U/ml) and streptomycin (6.25 μg/ml) and seeded onto 48-well plates (50 000 cells/well) one day before transfection. Transfection media containing 2.5% charcoal-stripped FBS in DMEM was changed on cells 4 h prior to transfection. Cells were transfected with 50 ng of reporter gene plasmid (pPB-286/+32-LUC; PB, probasin promoter), 5 ng of AR expression plasmid (pSG5-hAR), and 5 ng of pCMVβ (an internal, beta-galactosidase control for transfection efficiency and cell growth) using TranslT-LT1 reagent (Mirus Bio Corporation) according to the manufacturer's instructions. […] After 18 h, reporter gene activities (LUC and beta-galactosidase) were determined according to standard methods. The data are expressed as relative LUC activity (luciferase light units divided by beta-galactosidase A420nm to control for transfection efficiency) of a given compound in relation to the activity of a reference test item (=100%).
Agonism in W741L AR of compounds of the present invention was measured in AR transactivation assay in COS-1 cells as described above except that AR expression vector harboring the W741L mutation was used instead of the WT AR. The transfected cells were exposed to test compounds alone.

For experiment [2], the target named is T2, T877A AR (Homo sapiens, UniProt P10275, T878A).
T2 construct: expressed in transfected cells; host or cells: COS-1
T2 sequence (P10275 1-920 T878A): T1 sequence (P10275 1-920 W742L) with L742W, T878A
In words: Agonism in T877A mutant AR, AR transactivation assay in COS-1 cells, test compounds alone. The note with it: 10 microM, compound alone.
Description: The transfected cells were exposed to test compounds alone. Testosterone was used as reference agonist, and its' relative LUC activity representing AR-dependent transcription was set to 100%.

Experiment [3] has as its target T3, WT AR (Homo sapiens, UniProt P10275).
T3 construct: expressed in transfected cells; host or cells: COS-1
T3 sequence (P10275 1-920): T1 sequence (P10275 1-920 W742L) with L742W
In words: Antagonism in WT AR, AR transactivation reporter gene assay in COS-1 cells, competitive setting with 50 nM testosterone. Conditions: 18 h. How it is done:
After 18 h, reporter gene activities (LUC and beta-galactosidase) were determined according to standard methods. The data are expressed as relative LUC activity (luciferase light units divided by beta-galactosidase A420nm to control for transfection efficiency) of a given compound in relation to the activity of a reference test item (=100%).
Antagonism in WT AR of compounds of the present invention was measured in AR transctivation assay in COS-1 cells in competitive setting using testosterone as a reference agonist as described above. […] Relative LUC activity representing AR-dependent transcription obtained by exposure to testosterone alone was set to 100%.
For orientation: Reporter assays use an easily measured gene product as a stand-in for the process of interest.

As for `N#Cc1ccc(NC(=O)C(O)(CS(=O)(=O)Cc2ccc(F)cc2)c2cccc(C(F)(F)F)c2)cc1Cl` (centres unmarked) [Example 40, N-(3-chloro-4-cyanophenyl)-3-{[(4-fluorophenyl)methane]sulfonyl}-2-hydroxy-2-[3-(trifluoromethyl)phenyl]propanamide], the “Relative LUC activity (%) in W741L AR in relation to BIC (100%)” value (“Relative LUC activity (%) in W741L AR” for short) in experiment [1] came to 2%. The “Relative LUC activity (%) in T877A AR in relation to testosterone (100%)” value (“Relative LUC activity (%) in T877A AR” below) in experiment [2] was found to be 1%. Moreover, the “Relative LUC activity (%) indicating residual androgen activity in relation to testosterone (100%)” value was found to be 22% in experiment [3] (1 microM compound) and 2% in experiment [3] (10 microM compound).
With `N#Cc1ccc(NC(=O)C(O)(CS(=O)(=O)c2ccc(F)cc2)c2ccc(C(F)(F)F)cc2)cc1C(F)(F)F` (centres unmarked) [Example 21, N-(4-cyano-3-(trifluoromethyl)phenyl)-3-[(4-fluorobenzene)sulfonyl]-2-hydroxy-2-[4-(trifluoromethyl)phenyl]propanamide], the “Relative LUC activity (%) in W741L AR” value in experiment [1] is 3%. The “Relative LUC activity (%) in T877A AR” value in experiment [2] turned out to be 4%. In addition, the “Relative LUC activity (%) indicating residual androgen activity in relation to testosterone (100%)” value in experiment [3] (1 microM compound) was determined as 24%; in experiment [3] (10 microM compound), 1%.
Take `N#Cc1ccc(NC(=O)C(O)(CS(=O)(=O)c2ccc(Cl)cc2)c2ccc(Cl)cc2)cc1Cl` (centres unmarked) [Example 18, N-(3-chloro-4-cyanophenyl)-3-[(4-chlorobenzene)sulfonyl]-2-(4-chlorophenyl)-2-hydroxypropanamide]: the “Relative LUC activity (%) in W741L AR” value in experiment [1] was found to be 27%. The “Relative LUC activity (%) in T877A AR” value in experiment [2] is given as 6%. The “Relative LUC activity (%) indicating residual androgen activity in relation to testosterone (100%)” value in experiment [3] (1 microM compound) came out at 7%; in experiment [3] (10 microM compound), 1%.
The like results for `N#Cc1ccc(NC(=O)C(O)(CS(=O)(=O)c2ccc(F)cc2)c2ccc(C(F)(F)F)cc2)cc1Cl` (centres unmarked) [Example 4, N-(3-chloro-4-cyanophenyl)-3-[(4-fluorobenzene)sulfonyl]-2-hydroxy-2-[4-(trifluoromethyl)phenyl]propanamide] were, in that order, 8%, 1%, 21% and 1%.
On the same counts, the results for `N#Cc1ccc(NC(=O)C(O)(CS(=O)(=O)c2ccc(F)c(F)c2)c2ccc(C(F)(F)F)cc2)cc1Cl` (centres unmarked) [Example 10, N-(3-chloro-4-cyanophenyl)-3-[(3,4-difluorobenzene)sulfonyl]-2-hydroxy-2-[4-(trifluoromethyl)phenyl]propanamide] are 3%, 1%, 23% and 6%.
The like results for `N#Cc1ccc(NC(=O)C(O)(CS(=O)(=O)Cc2ccc(Cl)cc2)c2ccc(Cl)cc2)cc1Cl` (centres unmarked) [Example 27, N-[3-chloro-4-cyanophenyl]-3-{[(4-chlorophenyl)methane]sulfonyl}-2-hydroxy-2-[4-(chloro)phenyl]propanamide] were, in that order, 6%, 1%, 14% and 1%.
As to `CCS(=O)(=O)CC(O)(C(=O)Nc1ccc(C#N)c(Cl)c1)c1ccc(OC)c(F)c1` (centres unmarked) [Example 25, N-(3-chloro-4-cyanophenyl)-2-((3-fluoro-4-methoxy)phenyl)-3-(ethanesulfonyl)-2-hydroxypropanamide], in experiment [1], the “Relative LUC activity (%) in W741L AR” value stood at 9%. Also, the “Relative LUC activity (%) in T877A AR” value in experiment [2] was found to be 9%. In addition, the “Relative LUC activity (%) indicating residual androgen activity in relation to testosterone (100%)” value in experiment [3] (1 microM compound) stood at 22%; in experiment [3] (10 microM compound), 6%.
Consider `N#Cc1ccc(S(=O)(=O)CC(O)(C(=O)Nc2ccc([N+](=O)[O-])c(Cl)c2)c2ccc(C(F)(F)F)cc2)cc1F` (centres unmarked) [Example 19, N-(3-chloro-4-nitrophenyl)-3-[(4-cyano,3-fluorobenzene)sulfonyl]-2-hydroxy-2-[4-(trifluoromethyl)phenyl]propanamide], for which the “Relative LUC activity (%) in W741L AR” value in experiment [1] turned out to be 9%. The “Relative LUC activity (%) in T877A AR” value in experiment [2] was determined as 2%. Further, the “Relative LUC activity (%) indicating residual androgen activity in relation to testosterone (100%)” value in experiment [3] (1 microM compound) was determined as 11%; in experiment [3] (10 microM compound), 1%.

Values taken from patent publication US8816119B2, “Arylamide derivatives having antiandrogenic properties” (Medeia Therapeutics Ltd, priority 2010, dated 2014).
